Measured values reported in article PMC8421423, “Cellular model system to dissect the isoform-selectivity of Akt inhibitors” (Nature Communications, 2021).
Several values for one entry are separate records, joined by “and”; a condition that tells them apart may be missing. Equal entries are not always repeated. Where two headings read alike, the source gives them in different places.

Legend:
parental Ba/F3 cells = assay: CellTiter-Glo cell viability assay; assay type: cell-based, murine
Method: On day 0, cells were plated into white 384-well cell culture plates (Greiner Bio-One) using a Multidrop reagent dispenser (Thermo Fisher Scientific) at cell numbers that ensure linear and optimal luminescent signal intensity (Ba/F3myr-Akt1: 600 cells/well, Ba/F3myr-Akt2: 800 cells/well, Ba/F3myr-Akt3: 800 cells/well). […] Cell viability was analyzed on day 4 using the CellTiter-Glo Assay (Promega) as per the manufacturer’s instructions. […] All experimental points were measured in duplicates for each plate and were replicated in at least three plates.

Ba/F3^myr-Akt3 cells = assay: CellTiter-Glo cell viability assay; conditions: for Log ratio EC50 [Akt] / EC50 [Akt], Akt3 / Akt2: cell viability assay Ba/F3 myr-Akt cells, log units
Ba/F3^myr-Akt2 cells = assay: CellTiter-Glo cell viability assay
Akt3 = Akt3 (Homo sapiens, UniProt Q9Y243); assay: STK HTRF KinEASE activity-based assay (IC50)
Method: (§1) The biochemical half maximal inhibitory concentrations (IC50) were determined with the STK HTRF KinEASE assay (Cisbio) according to the manufactor’s instructions. Briefly: 5 µL Kinase solution and 2.5 µL inhibitor solution (8% DMSO in HTRF buffer) were incubated for 1 h before the reaction was started by addition of 2.5 µL starting solution containing ATP and substrate peptide. […] After reaction completion (Akt1: 60 min, Akt2: 20 min, Akt3: 15 min), 10 µL of stop solution were added. […] The quotient of both intensities were recorded at eight different inhibitor concentrations and data fit to a Hill 4-parameter equation with Quattro software suite (Quattro Research GmbH, Martinsried, Germany). Each reaction was performed in duplicates and at least three independent determinations of each IC50 were made.

Akt2 = Akt2 (Homo sapiens, UniProt P31751); assay: STK HTRF KinEASE activity-based assay (IC50)
Ba/F3^myr-Akt1 cells = assay: CellTiter-Glo cell viability assay; conditions: for Log ratio EC50 [Akt] / EC50 [Akt], Akt1 / Akt2: cell viability assay Ba/F3 myr-Akt cells, log units
Akt1 = Akt1 (Homo sapiens, UniProt P31749); assay: STK HTRF KinEASE activity-based assay (IC50); conditions: for Log ratio IC50 [Akt] / IC50 [Akt], Akt1 / Akt2: biochemical activity based assay, log units
Method: as §1

[1] = Mus musculus, BaF3, CTG, parental BaF3 cell line, read-out: EC50 BaF3
[2] = Mus musculus, BaF3, parental cells, mean of replicates, read-out: CTG BaF3, Mean
[3] = Mus musculus, BaF3, parental cells, single replicates, read-out: CTG BaF3, individual determinations
[4] = parental cells, single replicates, read-out: CTG BaF3, individual determinations
[5] = Mus musculus, read-out: CTG BaF3myr-Akt3, Mean, mean of replicates
[6] = Mus musculus, read-out: CTG BaF3myr-Akt3, individual determinations, single replicates
[7] = read-out: CTG BaF3myr-Akt3, individual determinations, single replicates
[8] = Mus musculus, read-out: CTG BaF3myr-Akt2, individual determinations, single replicates
[9] = read-out: CTG BaF3myr-Akt2, individual determinations, single replicates
[10] = HTRF IC50 Akt3, Mean, mean of replicates
[11] = HTRF IC50 Akt3, individual determinations, single replicates
[12] = IC50 Akt3, HTRF, ATP at KM, 1 h preincubation
[13] = HTRF IC50 Akt2, Mean, mean of replicates
[14] = HTRF IC50 Akt2, individual determinations, single replicates
[15] = IC50 Akt2, HTRF, ATP at KM, 1 h preincubation
[16] = Mus musculus, read-out: CTG BaF3myr-Akt1, Mean, mean of replicates
[17] = Mus musculus, read-out: CTG BaF3myr-Akt1, individual determinations, single replicates
[18] = Mus musculus, read-out: EC50 BaF3myr-Akt1, CTG
[19] = read-out: CTG BaF3myr-Akt1, individual determinations, single replicates
[20] = HTRF IC50 Akt1, Mean, mean of replicates
[21] = HTRF IC50 Akt1, individual determinations, single replicates
[22] = IC50 Akt1, HTRF, ATP at KM, 1 h preincubation
[23] = Mus musculus, read-out: CTG BaF3myr-Akt2, Mean, mean of replicates

Sequence of Akt3 (Q9Y243 whole entry): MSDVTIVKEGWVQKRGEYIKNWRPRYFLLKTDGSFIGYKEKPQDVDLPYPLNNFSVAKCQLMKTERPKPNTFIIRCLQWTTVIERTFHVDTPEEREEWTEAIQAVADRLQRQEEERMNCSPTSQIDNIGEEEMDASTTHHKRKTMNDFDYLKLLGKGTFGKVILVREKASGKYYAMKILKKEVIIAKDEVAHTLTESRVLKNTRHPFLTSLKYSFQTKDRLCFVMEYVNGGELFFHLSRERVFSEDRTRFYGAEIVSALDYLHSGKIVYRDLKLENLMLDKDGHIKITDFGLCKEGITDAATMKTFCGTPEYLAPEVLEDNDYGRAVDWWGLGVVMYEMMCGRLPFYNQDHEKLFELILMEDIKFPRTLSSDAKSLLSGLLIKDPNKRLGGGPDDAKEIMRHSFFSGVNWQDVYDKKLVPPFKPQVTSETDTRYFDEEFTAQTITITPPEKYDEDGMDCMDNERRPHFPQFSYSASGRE
Sequence of Akt2 (P31751 whole entry): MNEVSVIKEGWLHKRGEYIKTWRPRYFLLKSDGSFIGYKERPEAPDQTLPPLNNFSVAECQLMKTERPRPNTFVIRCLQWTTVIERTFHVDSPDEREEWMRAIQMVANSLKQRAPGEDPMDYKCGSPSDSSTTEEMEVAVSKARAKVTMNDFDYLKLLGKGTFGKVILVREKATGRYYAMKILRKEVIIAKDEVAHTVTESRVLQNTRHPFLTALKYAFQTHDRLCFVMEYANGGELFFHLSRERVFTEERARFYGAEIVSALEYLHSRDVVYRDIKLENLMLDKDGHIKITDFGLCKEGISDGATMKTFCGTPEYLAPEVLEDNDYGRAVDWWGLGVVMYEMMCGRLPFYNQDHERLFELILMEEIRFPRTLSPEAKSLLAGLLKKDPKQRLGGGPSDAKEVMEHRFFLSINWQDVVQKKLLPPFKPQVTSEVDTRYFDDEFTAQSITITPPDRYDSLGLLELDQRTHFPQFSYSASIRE
Sequence of Akt1 (P31749 whole entry): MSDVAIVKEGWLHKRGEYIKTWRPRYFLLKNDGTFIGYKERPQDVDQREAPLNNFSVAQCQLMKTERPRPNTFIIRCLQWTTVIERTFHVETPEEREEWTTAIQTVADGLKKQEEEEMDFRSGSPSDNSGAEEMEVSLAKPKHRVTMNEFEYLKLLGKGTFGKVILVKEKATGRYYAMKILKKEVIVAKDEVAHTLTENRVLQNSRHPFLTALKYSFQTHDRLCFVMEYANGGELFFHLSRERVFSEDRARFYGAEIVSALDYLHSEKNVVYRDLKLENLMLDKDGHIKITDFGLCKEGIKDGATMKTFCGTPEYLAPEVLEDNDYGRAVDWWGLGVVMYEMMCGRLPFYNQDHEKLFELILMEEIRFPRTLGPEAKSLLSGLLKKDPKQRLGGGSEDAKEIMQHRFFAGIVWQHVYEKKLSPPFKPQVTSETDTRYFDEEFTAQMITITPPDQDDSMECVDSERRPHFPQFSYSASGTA

| EC50 (Ba/F3^myr-Akt3 cells; [5]) | EC50 (Ba/F3^myr-Akt3 cells; [7]) | EC50 (Ba/F3^myr-Akt2 cells; [9]) | IC50 (Akt3; [10]) | IC50 (Akt3; [11]) | IC50 (Akt3; [12]) | IC50 (Akt2; [13]) | IC50 (Akt2; [14]) | IC50 (Akt2; [15]) | EC50 (Ba/F3^myr-Akt1 cells; [16]) | EC50 (Ba/F3^myr-Akt1 cells; [19]) | IC50 (Akt1; [20]) | IC50 (Akt1; [21]) | IC50 (Akt1; [22]) | Log ratio IC50 [Akt] / IC50 [Akt], Akt1 / Akt2 (Akt1) | Structure (SMILES) | EC50 (parental Ba/F3 cells; [1]) | EC50 (parental Ba/F3 cells; [2]) | EC50 (parental Ba/F3 cells; [4]) | Log ratio EC50 [Akt] / EC50 [Akt], Akt3 / Akt2 (Ba/F3^myr-Akt3 cells) | Log ratio EC50 [Akt] / EC50 [Akt], Akt1 / Akt2 (Ba/F3^myr-Akt1 cells) | further results |
| --- | --- | --- | --- | --- | --- | --- | --- | --- | --- | --- | --- | --- | --- | --- | --- | --- | --- | --- | --- | --- | --- |
| > 30 µM | > 30 µM | 16.5 µM and > 30 µM | 5.34 µM | 4.32 µM and 3.56 µM and 8.14 µM | 5.34 ± 2.01 µM | 0.682 µM | 0.766 µM and 1.08 µM and 0.599 µM | 0.682 ± 0.083 µM | > 30 µM | > 30 µM | 9.48 µM | 10.2 µM and 9 µM and 9.2 µM | 9.48 ± 0.665 µM | 1.14 | C=CC(=O)Nc1ccc2[nH]c(=O)n(C3CCN(Cc4ccc(-c5ncc(Cc6cccc(O)c6)cc5-c5ccccc5)cc4)CC3)c2c1 [compound 16] | > 30 µM | > 30 µM | > 30 µM | -0.07 | 0.07 | EC50 (parental Ba/F3 cells; [3]): > 30 µM; EC50 BaF3myr-Akt3 (Ba/F3^myr-Akt3 cells; CTG): generally inactive; EC50 (Ba/F3^myr-Akt3 cells; [6]): > 30 µM; EC50 (Ba/F3^myr-Akt3 cells; Mus musculus, read-out: EC50 BaF3myr-Akt3, CTG): > 30 µM; EC50 (Ba/F3^myr-Akt2 cells; [8]): > 30 µM; EC50 BaF3myr-Akt1 (Ba/F3^myr-Akt1 cells; CTG): generally inactive; EC50 (Ba/F3^myr-Akt1 cells; [17]): > 30 µM; EC50 (Ba/F3^myr-Akt1 cells; [18]): > 30 µM |
| 22 µM | 17.8 µM and 24.3 µM | 4.24 µM and 2.81 µM | 2.11 µM | 1.48 µM and 2.41 µM and 2.43 µM | 2.11 ± 0.441 µM | 0.133 µM | 0.136 µM and 0.142 µM and 0.121 µM | 0.133 ± 0.009 µM | > 30 µM | > 30 µM | 2.85 µM | 2.55 µM and 3.9 µM and 2.12 µM | 2.85 ± 0.758 µM | 1.33 | C=CC(=O)Nc1ccc2[nH]c(=O)n(C3CCN(Cc4ccc(-c5ncc(Cc6cccc(N)c6)cc5-c5ccccc5)cc4)CC3)c2c1 [compound 17] | > 30 µM | > 30 µM | > 30 µM | -0.77 | 0.90 | EC50 (parental Ba/F3 cells; [3]): > 30 µM; EC50 (Ba/F3^myr-Akt3 cells; [6]): 21.7 µM; EC50 (Ba/F3^myr-Akt2 cells; [23]): 3.75 µM; EC50 (Ba/F3^myr-Akt2 cells; [8]): 3.2 µM; EC50 (Ba/F3^myr-Akt1 cells; [17]): > 30 µM; EC50 (Ba/F3^myr-Akt1 cells; [18]): > 30 µM |
| 7.44 µM | 7.03 µM and 8.07 µM | 3.83 µM and 2.66 µM | 1.51 µM | 2.03 µM and 1.41 µM and 1.09 µM | 1.51 ± 0.389 µM | 0.511 µM | 0.523 µM and 0.43 µM and 0.581 µM | 0.511 ± 0.062 µM | 12.7 µM | 19.7 µM and 8.66 µM and 9.89 µM | 1.8 µM | 1.9 µM and 1.84 µM and 1.65 µM | 1.8 ± 0.105 µM | 0.55 | C=CC(=O)Nc1ccc2[nH]c(=O)n(C3CCN(Cc4ccc(-c5ncc(Cc6ccc(N)cc6)cc5-c5ccccc5)cc4)CC3)c2c1 [compound 19] |  | 12.5 µM | 6.98 µM and 7.49 µM and 18.8 µM | -0.41 | 0.64 | EC50 (Ba/F3^myr-Akt3 cells; [6]): 6.61 µM; EC50 (Ba/F3^myr-Akt2 cells; [23]): 2.89 µM; EC50 (Ba/F3^myr-Akt2 cells; [8]): 2.19 µM; loss of potency of the anilinic CAAI (Akt3; Akt3, biochemical IC50): 10 fold |
| 17.1 µM | 9.71 µM and 24.4 µM and 23.9 µM | 4.03 µM and 2.63 µM and 1.62 µM | 6.3 µM | 3.66 µM and 8.18 µM and 7.06 µM | 6.3 ± 1.92 µM | 0.152 µM | 0.117 µM and 0.167 µM and 0.17 µM | 0.151 ± 0.025 µM | 14.6 µM | 8.09 µM and 10.5 µM and 25.3 µM | 0.13 µM | 0.128 µM and 0.117 µM and 0.144 µM | 0.13 ± 0.011 µM | -0.07 | C=CC(=O)Nc1ccc2[nH]c(=O)n(C3CCN(Cc4ccc(-c5ncc(C(=O)Nc6ccccn6)cc5-c5ccccc5)cc4)CC3)c2c1 [compound 23] | > 30 µM | > 30 µM | > 30 µM | -0.79 | 0.72 | EC50 (parental Ba/F3 cells; [3]): > 30 µM; EC50 (Ba/F3^myr-Akt2 cells; [23]): 2.76 µM |
